Data on 24 compounds can be found in US10975083B2, “Blood-brain barrier-penetrant dopamine-β-hydroxylase inhibitors” (BIAL—PORTELA & Cᵃ, S.A., priority 2016, dated 2021).

The assay concerns the target T1, DβH (Homo sapiens, UniProt P09172).
T1 construct: reaction mixture (total volume 500 μl) contained: cellular homogenate (75 μg total protein); host or cells: SK-N-SH cell homogenate
T1 sequence (P09172 1-617): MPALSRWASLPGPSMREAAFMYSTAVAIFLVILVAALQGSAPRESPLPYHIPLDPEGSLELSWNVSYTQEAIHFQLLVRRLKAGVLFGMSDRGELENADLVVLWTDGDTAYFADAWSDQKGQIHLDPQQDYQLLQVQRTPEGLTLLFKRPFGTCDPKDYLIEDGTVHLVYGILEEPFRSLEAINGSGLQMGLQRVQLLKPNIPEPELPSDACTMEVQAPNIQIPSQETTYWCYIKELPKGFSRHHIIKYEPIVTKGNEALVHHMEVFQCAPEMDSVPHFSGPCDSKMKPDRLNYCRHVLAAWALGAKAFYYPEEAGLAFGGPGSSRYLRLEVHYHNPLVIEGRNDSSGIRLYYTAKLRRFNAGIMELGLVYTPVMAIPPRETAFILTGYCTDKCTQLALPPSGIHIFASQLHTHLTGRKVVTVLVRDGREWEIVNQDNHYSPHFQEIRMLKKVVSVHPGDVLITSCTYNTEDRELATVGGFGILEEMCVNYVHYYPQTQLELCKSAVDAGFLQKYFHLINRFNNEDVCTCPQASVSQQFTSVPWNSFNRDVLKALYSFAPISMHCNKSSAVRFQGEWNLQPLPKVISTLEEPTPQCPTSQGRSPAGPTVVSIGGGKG
Nature of the assay: DβH inhibition cell assay (SK-N-SH cellular homogenates, tyramine to octopamine). It counts as biochemical. Particulars: for remaining activity at 0.1 µM: inhibitor 0.1 μM, read-out: DβH activity in % of Ctrl (0.1 μM); for remaining activity at 1 µM: read-out: DβH activity in % of Ctrl (1 μM). Here is the method: The ability of a compound to inhibit DβH activity may be assessed using the following cell assay. […] . […] Fetal bovine serum was removed from cells for 4 h prior to collection.
For the preparation of cellular homogenates, media was removed and cell monolayers were washed with 50 mM Tris-HCl pH 7.4. Cells were subsequently scrapped off the flasks and were resuspended in 50 mM Tris pH 7.4. Cell suspensions were homogenized with SilentCrusher M (Heidolph) for a short stroke and resultant homogenates were aliquoted and stored frozen at −80° C.
Total protein was quantified in cellular homogenates with BioRad Protein Assay (BioRad) using a standard curve of BSA (50-250 μg/mL).
DβH activity was measured by a modification of the method of Nagatsu and Udenfriend (Nagatsu, T. and S. Udenfriend: “Photometric assay of dopamine-hydroxylase activity in human blood.” Clin. Chem. 18(9): 980-3, 1972) which is based on the enzymatic hydroxylation of tyramine into octopamine. The octopamine formed is subsequently oxidized to p-hydroxybenzaldehyde and measured by spectrophotometry. In brief, reaction mixture (total volume 500 μl) contained: cellular homogenate (75 μg total protein) sodium acetate pH 5.0 (200 mM), NEM (30 mM), CuSO4 (5 μM), catalase aqueous solution (0.5 mg/mL), pargyline-HCl (1 mM), sodium fumarate (10 mM), ascorbic acid (10 mM), inhibitor or vehicle and tyramine (25 mM). After a 10 min pre-incubation period at 37° C., the reaction was initiated by the addition of tyramine. Reaction was carried out for 45 min at 37° C. before termination with 50 μl PCA (2 M).
Samples were centrifuged for 3 min at 16100 g and supernatants were subjected to solid phase extraction. Solid phase extraction was performed using either SPE cartridges ISOLUTE SCX-3 (100 mg, 1 mL) or SPE 2 mL fixed 96 well plates ISOLUTE SCX-3 (100 mg) previously equilibrated with MilliQ water. Columns/plates were centrifuged at 150 g for 2 min. Eluate was discarded and matrix was washed with 1 mL of MilliQ water after which octopamine was eluted with 2×0.25 mL ammonium hydroxide (4 M). The oxidation of octopamine to p-hydroxybenzaldehyde was carried out for 6 min with 100 μl sodium periodate (2%) and was stopped with 100 μl sodium metabisulfite (10%). Absorbance was measured at 330 nm on a Spectramax microplate reader (Molecular Devices, Sunnyvale, Calif.). All enzymatic reactions were performed in duplicate. Results are reported in the table below as activity in % of control at the inhibitor concentration tested.

The mark [1] stands for this setting: inhibitor 1 μM, SK-N-SH cell homogenate.

Where two headings read alike, the source gives them in different places.

For `Fc1cccc(F)c1[C@]12C[C@H]1c1c[nH]c(=S)n1C2` [Example 64, (5aS,6aR)-5a-(2,6-difluorophenyl)-5,5a,6,6a-tetrahydrocyclopropa[3,4]pyrrolo[1,2-c]imidazole-3(2H)-thione], the remaining activity at 0.1 µM (SK-N-SH cell homogenate) was determined as 39.9%. Besides, the remaining activity at 1 µM under setting [1] amounted to 7.2%.

With `Fc1cccc(F)c1[C@@]12C[C@@H]1c1c[nH]c(=S)n1C2` [Example 65, (5aR,6aS)-5a-(2,6-difluorophenyl)-5,5a,6,6a-tetrahydrocyclopropa[3,4]pyrrolo[1,2-c]imidazole-3(2H)-thione], the remaining activity at 1 µM under setting [1] amounted to 17.9%. For `Fc1cccc([C@]23C[C@H]2c2c[nH]c(=S)n2C3)c1F` [Example 66, (5aS,6aR)-5a-(2,3-difluorophenyl)-5,5a,6,6a-tetrahydrocyclopropa[3,4]pyrrolo[1,2-c]imidazole-3(2H)-thione], the remaining activity at 0.1 µM (SK-N-SH cell homogenate) was determined as 51.1%. The remaining activity at 1 µM under setting [1] came to 7.9%. In the case of `Fc1cccc([C@@]23C[C@@H]2c2c[nH]c(=S)n2C3)c1F` [Example 67, (5aR,6aS)-5a-(2,3-difluorophenyl)-5,5a,6,6a-tetrahydrocyclopropa[3,4]pyrrolo[1,2-c]imidazole-3(2H)-thione], the remaining activity at 1 µM under setting [1] is 36.1%. Consider `Fc1ccc(F)c([C@]23C[C@H]2c2c[nH]c(=S)n2C3)c1F` [Example 68, (5aS,6aR)-5a-(2,3,6-trifluorophenyl)-5,5a,6,6a-tetrahydrocyclopropa[3,4]pyrrolo[1,2-c]imidazole-3 (2H)-thione], for which the remaining activity at 1 µM under setting [1] is 5.1%. Still for that read-out and setting: the figure for `Fc1ccc(F)c([C@@]23C[C@@H]2c2c[nH]c(=S)n2C3)c1F` [Example 69, (5aR,6aS)-5a-(2,3,6-trifluorophenyl)-5,5a,6,6a-tetrahydrocyclopropa[3,4]pyrrolo[1,2-c]imidazole-3 (2H)-thione] is 14.6%. On to `Fc1ccc([C@]23C[C@H]2c2c[nH]c(=S)n2C3)c(F)c1` [Example 70, (5aS,6aR)-5a-(2,4-difluorophenyl)-5,5a,6,6a-tetrahydrocyclopropa[3,4]pyrrolo[1,2-c]imidazole-3(2H)-thione], for which the remaining activity at 1 µM under setting [1] was found to be 35.7%.

`Fc1ccc([C@]23C[C@H]2c2c[nH]c(=S)n2C3)cc1F` [Example 71, (5aS,6aR)-5a-(3,4-difluorophenyl)-5,5a,6,6a-tetrahydrocyclopropa[3,4]pyrrolo[1,2-c]imidazole-3(2H)-thione]: the remaining activity at 1 µM under setting [1] is 48.5%.

Take `Fc1cc(F)c([C@]23C[C@H]2c2c[nH]c(=S)n2C3)cc1F` [Example 72, (5aS,6aR)-5a-(2,4,5-trifluorophenyl)-5,5a,6,6a-tetrahydrocyclopropa[3,4]pyrrolo[1,2-c]imidazole-3 (2H)-thione]: the remaining activity at 1 µM under setting [1] was 35%. For `Fc1cc(Cl)cc([C@]23C[C@H]2c2c[nH]c(=S)n2C3)c1` [Example 73, (5aS,6aR)-5a-(3-chloro-5-fluorophenyl)-5,5a,6,6a-tetrahydrocyclopropa[3,4]pyrrolo[1,2-c]imidazole-3 (2H)-thione], under “SK-N-SH cell homogenate”, the remaining activity at 0.1 µM amounted to 41.7%. Also, the remaining activity at 1 µM under setting [1] was 5.1%. On to `Fc1ccc(Cl)cc1[C@]12C[C@H]1c1c[nH]c(=S)n1C2` [Example 74, (5aS,6aR)-5a-(5-chloro-2-fluorophenyl)-5,5a,6,6a-tetrahydrocyclopropa[3,4]pyrrolo[1,2-c]imidazole-3 (2H)-thione], for which, where the note is “SK-N-SH cell homogenate”, the remaining activity at 0.1 µM was 21.9%. The remaining activity at 1 µM under setting [1] amounted to 1.8%. Consider `Fc1ccc(Cl)c([C@]23C[C@H]2c2c[nH]c(=S)n2C3)c1` [Example 75, (5aS,6aR)-5a-(2-chloro-5-fluorophenyl)-5,5a,6,6a-tetrahydrocyclopropa[3,4]pyrrolo[1,2-c]imidazole-3 (2H)-thione], for which the remaining activity at 1 µM under setting [1] amounted to 18.1%. On to `Cn1cc2n(c1=S)C[C@@]1(c3cc(F)cc(F)c3)C[C@@H]21` [Example 76, (5aS,6aR)-5a-(3,5-difluorophenyl)-2-methyl-5,5a,6,6a-tetrahydrocyclopropa[3,4]pyrrolo[1,2-c]imidazole-3 (2H)-thione], for which the remaining activity at 1 µM under setting [1] was found to be 17.4%. `Fc1cc(F)cc([C@]23C[C@H]2c2cn(C4CC4)c(=S)n2C3)c1` [Example 77, (5aS,6aR)-2-cyclopropyl-5 a-(3,5-difluorophenyl)-5,5a,6,6a-tetrahydrocyclopropa[3,4]pyrrolo[1,2-c]imidazole-3 (2H)-thione]: the remaining activity at 1 µM under setting [1] amounted to 23%. As to `Cc1[nH]c(=S)n2c1[C@@H]1C[C@]1(c1cc(F)ccc1F)C2` [Example 78, (5aS,6aR)-5a-(2,5-difluorophenyl)-1-methyl-5,5a,6,6a-tetrahydrocyclopropa[3,4]pyrrolo[1,2-c]imidazole-3 (2H)-thione], the remaining activity at 1 µM under setting [1] came to 10.9%. The same measure, in the same setting: in the case of `Cc1[nH]c(=S)n2c1[C@@H]1C[C@]1(c1cc(F)cc(F)c1)C2` [Example 79, (5aS,6aR)-5a-(3,5-difluorophenyl)-1-methyl-5,5a,6,6a-tetrahydrocyclopropa[3,4]pyrrolo[1,2-c]imidazole-3 (2H)-thione] it was 13%. For the compound `CCCCc1[nH]c(=S)n2c1C[C@@H](c1cc(F)cc(F)c1)C2` [Example 80, (S)-1-butyl-6-(3,5-difluorophenyl)-6,7-dihydro-2H-pyrrolo[1,2-c]imidazole-3(5H)-thione], the remaining activity at 1 µM was determined as 56.7%. For the compound `S=c1[nH]cc2n1CC(C1CCCCC1)C2` (stereo not shown) [Example 81, 6-cyclohexyl-6,7-dihydro-2H-pyrrolo[1,2-c]imidazole-3(5H)-thione], the remaining activity at 1 µM under setting [1] came out at 59.4%.

On to `Fc1cc(F)c(F)c([C@@H]2Cc3c[nH]c(=S)n3C2)c1` [Example 82, (S)-6-(2,3,5-trifluorophenyl)-2,5,6,7-tetrahydro-3H-pyrrolo[1,2-c]imidazole-3-thione], for which, for the setting “SK-N-SH cell homogenate”, the remaining activity at 0.1 µM worked out at 90%. Also, the remaining activity at 1 µM under setting [1] amounted to 20%. For the compound `Fc1cc(F)c(F)c([C@H]2Cc3c[nH]c(=S)n3C2)c1` [Example 83, (R)-6-(2,3,5-trifluorophenyl)-2,5,6,7-tetrahydro-3H-pyrrolo[1,2-c]imidazole-3-thione], the remaining activity at 0.1 µM (SK-N-SH cell homogenate) came out at 84%. Also, the remaining activity at 1 µM under setting [1] came out at 33.1%. Turning to `Fc1cccc(F)c1[C@@H]1Cc2c[nH]c(=S)n2C1` [Example 84, (S)-6-(2,6-difluorophenyl)-2,5,6,7-tetrahydro-3H-pyrrolo[1,2-c]imidazole-3-thione], the remaining activity at 0.1 µM (SK-N-SH cell homogenate) was determined as 96.9%. Also, the remaining activity at 1 µM under setting [1] was determined as 41.9%. On to `Fc1ccc(Cl)c(F)c1[C@@H]1Cc2c[nH]c(=S)n2C1` [Example 85, (S)-6-(3-chloro-2,6-difluorophenyl)-2,5,6,7-tetrahydro-3H-pyrrolo[1,2-c]imidazole-3-thione], for which, for the setting “SK-N-SH cell homogenate”, the remaining activity at 0.1 µM was 0%. Also, the remaining activity at 1 µM under setting [1] worked out at 0%. Consider `Fc1ccc(Cl)c(F)c1[C@H]1Cc2c[nH]c(=S)n2C1` [Example 86, (R)-6-(3-chloro-2,6-difluorophenyl)-2,5,6,7-tetrahydro-3H-pyrrolo[1,2-c]imidazole-3-thione], for which, where the note is “SK-N-SH cell homogenate”, the remaining activity at 0.1 µM stood at 25.3%. Besides, the remaining activity at 1 µM under setting [1] worked out at 0%. In the case of `Fc1cccc(F)c1[C@H]1Cc2c[nH]c(=S)n2C1` [Example 87, (R)-6-(2,6-difluorophenyl)-2,5,6,7-tetrahydro-3H-pyrrolo[1,2-c]imidazole-3-thione], the remaining activity at 0.1 µM (SK-N-SH cell homogenate) was 36.5%. The remaining activity at 1 µM under setting [1] came to 0%.
